# Assay results reported in ChEMBL document CHEMBL1201862, “PubChem BioAssay data set” (2004).
# The source made the active and inactive calls.
# What was measured:
# [1] = molecular target: T1, Mannose-6-phosphate isomerase (Homo sapiens, UniProt P34949); assay: PMI enzyme inhibitors, confirmation, biochemical, fluorescence intensity (AID 1535)
# T1 sequence (P34949 whole entry): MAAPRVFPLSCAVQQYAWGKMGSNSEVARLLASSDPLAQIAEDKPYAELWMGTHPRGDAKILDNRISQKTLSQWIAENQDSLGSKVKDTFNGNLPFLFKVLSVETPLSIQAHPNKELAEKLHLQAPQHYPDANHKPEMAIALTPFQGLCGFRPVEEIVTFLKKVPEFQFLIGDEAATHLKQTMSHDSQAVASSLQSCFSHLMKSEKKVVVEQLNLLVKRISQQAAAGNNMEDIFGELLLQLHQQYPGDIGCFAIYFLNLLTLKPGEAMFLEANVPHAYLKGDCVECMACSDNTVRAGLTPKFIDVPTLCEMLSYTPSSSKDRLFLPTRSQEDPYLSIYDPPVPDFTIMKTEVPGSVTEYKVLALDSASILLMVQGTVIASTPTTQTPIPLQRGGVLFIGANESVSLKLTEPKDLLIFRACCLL
# [2] = molecular target: Phosphomannomutase 2 (Homo sapiens, UniProt O15305); assay: Counter screen SAR assay for PMM2 inhibitors via a fluorescence intensity assay. [Related pubchem assays (depositor defined):AID1545, AID1574]
# [3] = molecular target: Cytochrome P450 3A4 (Homo sapiens, UniProt P08684);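 also: CYP3A4 tested as one member of a cytochrome P450 panel screen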
# [4] = molecular target: T2, Dual specificity protein phosphatase 3 (Homo sapiens, UniProt P51452); assay: Dose Response Confirmation of compounds that inhibit VHR1 in Fluorescent Assay. [Related pubchem assays (depositor defined):AID1661, AID1878]; format: functional
# [5] = molecular target: T3, Tyrosine-protein phosphatase non-receptor type 7 (Homo sapiens, UniProt P35236); assay: Dose Response confirmation of compounds that inhibit HePTP. [Related pubchem assays (depositor defined):AID1059, AID1661, AID2085]; format: functional
# T3 sequence (P35236 whole entry): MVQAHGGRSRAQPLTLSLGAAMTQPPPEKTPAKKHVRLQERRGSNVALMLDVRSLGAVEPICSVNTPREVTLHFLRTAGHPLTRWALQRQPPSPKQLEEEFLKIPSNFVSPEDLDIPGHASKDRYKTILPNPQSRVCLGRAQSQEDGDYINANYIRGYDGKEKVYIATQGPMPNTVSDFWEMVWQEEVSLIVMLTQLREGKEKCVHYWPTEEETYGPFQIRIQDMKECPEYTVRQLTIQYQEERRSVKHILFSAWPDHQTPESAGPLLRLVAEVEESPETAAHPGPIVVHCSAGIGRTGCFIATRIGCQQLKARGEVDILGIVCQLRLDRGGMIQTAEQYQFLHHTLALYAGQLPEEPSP
# [6] = molecular target: T2, Dual specificity protein phosphatase 3; assay: SAR VHR1 Fluorescent Assay for In Vitro dose response studies Set 3. [Related pubchem assays (depositor defined):AID1654, AID1661, AID1878]; format: functional
# [7] = molecular target: Cytochrome P450 2C19 (Homo sapiens, UniProt P33261); assay: Cytochrome panel assay with activity outcomes. Panel member name: p450-cyp2c19 Compounds with AC50 equal or less than 10 uM are considered active; format: functional; details: read-out: AC50
# [8] = molecular target: Cytochrome P450 2C9 (Homo sapiens, UniProt P11712)
# [9] = molecular target: T4, Cytochrome P450 1A2 (Homo sapiens, UniProt P05177);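 also: PubChem cytochrome P450 panel assay, CYP1A2 panel member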
# T4 sequence (P05177 whole entry): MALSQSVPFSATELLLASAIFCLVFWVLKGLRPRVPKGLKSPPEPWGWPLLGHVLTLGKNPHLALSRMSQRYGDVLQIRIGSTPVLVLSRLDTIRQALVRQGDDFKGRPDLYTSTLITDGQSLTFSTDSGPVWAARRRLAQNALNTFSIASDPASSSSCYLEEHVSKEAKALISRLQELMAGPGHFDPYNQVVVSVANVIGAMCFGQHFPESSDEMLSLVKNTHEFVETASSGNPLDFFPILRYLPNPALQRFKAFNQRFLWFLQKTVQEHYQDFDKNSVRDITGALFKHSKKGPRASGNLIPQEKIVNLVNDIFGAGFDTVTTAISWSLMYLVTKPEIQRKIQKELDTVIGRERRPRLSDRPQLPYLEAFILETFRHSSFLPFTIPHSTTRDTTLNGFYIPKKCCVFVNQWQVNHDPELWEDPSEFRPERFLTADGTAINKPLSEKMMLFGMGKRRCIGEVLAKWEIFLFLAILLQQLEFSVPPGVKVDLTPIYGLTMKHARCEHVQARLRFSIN
# [10] = Vero E6 cell cytotoxicity, dose response, cytotoxicity control for non-replicating M. tuberculosis project, secondary assay (AID 492998); format: functional, VeroE6; details: Vero C1008
# [11] = cells; format: functional
# [12] = HepG2 cell cytotoxicity, dose response, cytotoxicity control for non-replicating M. tuberculosis project (AID 489018); format: functional; details: Mycobacterium tuberculosis
# [13] = test system: Vero; assay: cells; format: functional; details: Chlorocebus sabaeus
# [14] = THP-1 cell cytotoxicity, dose response, cytotoxicity control for non-replicating M. tuberculosis project (AID 489025); format: functional
# [15] = cytotoxicity toward NIH3T3 fibroblasts, dose response, counter-screen, cell-based, ATP luminescence, mouse fibroblasts (AID 2010); format: functional;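 also: cells exposed to compound for about 90 hours before reading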
# [16] = inhibitors of intracellular T. cruzi replication, confirmation, NIH3T3 host cells, beta-gal luminescence (AID 2044); format: functional, cell-based;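 also: intracellular parasites grown in NIH/3T3 mouse fibroblasts as host cells; luminescent beta-galactosidase reporter signal from transgenic T. cruzi replicating inside host cells; inhibitors lower the luminescence signal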
# [17] = molecular target: T5, G-protein coupled receptor 55 (Homo sapiens, UniProt Q9Y2T6); assay: GPR55 agonists via beta-arrestin recruitment, primary screen, imaging, U2OS cells, beta-arrestin-GFP redistribution (AID 1961); format: functional
# [18] = molecular target: T6, Short transient receptor potential channel 4 (Mus musculus, UniProt Q9QUQ5); assay: TRPC4 positive allosteric modulators, dose response, cell-based, HEK293 TRPC4/mu-opioid, Fluo-4 calcium, EC20 DAMGO (AID 434941); format: functional
# T6 sequence (Q9QUQ5 whole entry): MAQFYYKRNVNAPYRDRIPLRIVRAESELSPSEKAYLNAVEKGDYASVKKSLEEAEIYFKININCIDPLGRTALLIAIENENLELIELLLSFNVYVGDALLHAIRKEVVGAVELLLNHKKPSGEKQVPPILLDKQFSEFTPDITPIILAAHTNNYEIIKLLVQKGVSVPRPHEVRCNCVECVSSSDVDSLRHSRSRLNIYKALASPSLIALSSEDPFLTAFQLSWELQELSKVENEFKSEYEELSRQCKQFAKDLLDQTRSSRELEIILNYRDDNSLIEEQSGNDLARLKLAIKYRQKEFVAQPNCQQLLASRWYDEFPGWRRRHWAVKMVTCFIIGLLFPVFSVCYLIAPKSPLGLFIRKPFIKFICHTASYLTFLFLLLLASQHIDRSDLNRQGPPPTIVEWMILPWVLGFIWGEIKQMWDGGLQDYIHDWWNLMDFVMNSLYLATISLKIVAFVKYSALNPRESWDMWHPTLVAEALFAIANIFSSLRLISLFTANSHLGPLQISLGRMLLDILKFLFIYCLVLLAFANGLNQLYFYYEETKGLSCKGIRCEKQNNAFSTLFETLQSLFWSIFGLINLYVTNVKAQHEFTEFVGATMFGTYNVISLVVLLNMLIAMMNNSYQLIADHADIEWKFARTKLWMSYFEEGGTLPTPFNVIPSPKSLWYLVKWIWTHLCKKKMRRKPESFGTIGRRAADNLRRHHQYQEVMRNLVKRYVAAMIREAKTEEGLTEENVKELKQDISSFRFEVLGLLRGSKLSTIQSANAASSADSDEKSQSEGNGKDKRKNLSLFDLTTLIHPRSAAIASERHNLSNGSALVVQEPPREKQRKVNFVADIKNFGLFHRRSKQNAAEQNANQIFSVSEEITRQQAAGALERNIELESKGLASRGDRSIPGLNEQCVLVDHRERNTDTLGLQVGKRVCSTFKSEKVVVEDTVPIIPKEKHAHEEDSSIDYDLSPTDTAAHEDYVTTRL
# [19] = molecular target: Eukaryotic translation initiation factor 4E (Mus musculus, UniProt P63073); assay: eIF4E–eIF4G protein interaction inhibitors, dose response, biochemical, TR-FRET (AID 855); format: functional;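 also: potency for disrupting eIF4E binding to eIF4GI seen as loss of FRET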
# [20] = test system: INS1; assay: beta cell apoptosis inhibitors, cytokine rescue, dose response, luminescence, retest (AID 449756); format: functional, cell-based; details: Rattus norvegicus;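 also: cell death triggered by IL-1 beta plus TNF-alpha plus IFN-gamma mixture; protective hits raise ATP signal compared with cytokine alone wells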
# [21] = Shn3 3'UTR reporter inhibitors, dose response, cell-based, Clone20 osteoblasts, firefly luciferase, cherry-picked (AID 624132); format: functional;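 also: firefly luciferase luminescence from reporter carrying the Shn3 3'UTR in osteoblasts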
# [22] = molecular target: E3 ubiquitin-protein ligase Mdm2/Protein Mdm4 (Homo sapiens, UniProt O15151+Q00987); assay: Mdm2-MdmX interaction inhibitors, dose response, luminescence detection (AID 504593); format: functional
# [23] = C. albicans growth with fluconazole, confirmation, fluorescence, retest (AID 2467); format: functional, cell-based
# [24] = control 3'UTR Renilla luciferase suppression, dose response, counter-screen for Shn3 inhibitor project, cell-based, Clone20-Shn3RL, cherry-picked (AID 624133); format: functional
# [25] = NIH-3T3 fibroblast cytotoxicity, dose response, cytotoxicity control, cell-based, fluorescence, Alamar Blue, secondary assay (AID 2327); format: functional;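 also: NIH-3T3 mouse fibroblasts cultured with fluconazole at 8 µg/mL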
# [26] = HepG2 cell cytotoxicity, dose response, cytotoxicity control for Shn3 inhibitor project, CellTiter-Glo, cherry-picked (AID 624134); format: functional, cell-based
# [27] = molecular target: T5, G-protein coupled receptor 55; assay: SAR Analysis of Selective Antagonists of GPR55 using an Image-Based Assay - Set 3. [Related pubchem assays (depositor defined):AID2058, AID2079]; format: functional
# [28] = molecular target: G-protein coupled receptor 35 (Homo sapiens, UniProt Q9HC97); assay: SAR analysis of Antagonists of the GPR35 Receptor using an Image-Based Assay - Set 5. [Related pubchem assays (depositor defined):AID2058, AID2079]; format: functional
# [29] = A Cell Based Secondary Assay To Explore Cytotoxicity of Compounds that Sensitize Mycobacterium Tuberculosis to Beta-Lactam Antibiotics.; format: functional
# [30] = molecular target: Alkaline phosphatase, tissue-nonspecific isozyme (Homo sapiens, UniProt P05186); assay: human TNAP enzyme inhibitors, SAR follow-up, biochemical, luminescent, dose response (AID 1056)
# [31] = molecular target: Alkaline phosphatase, placental type (Homo sapiens, UniProt P05187); assay: PLAP enzyme inhibitors, confirmation, biochemical, luminescence (AID 1512); format: functional
# [32] = molecular target: Mu-type opioid receptor (Homo sapiens, UniProt P35372); assay: SAR Analysis of Antagonists of the MOR Receptor using an Image-Based Assay - Set 3. [Related pubchem assays (depositor defined):AID1777, AID1785, AID1786, AID1966, AID2133, AID2136, AID2284, AID2285, AID2420]; format: functional
# [33] = molecular target: T7, Kappa-type opioid receptor (Homo sapiens, UniProt P41145); assay: SAR analysis of small molecule antagonists of the kappa opioid receptor via a luminescent beta-arrestin assay - Set 3. [Related pubchem assays (depositor defined):AID1777, AID1778, AID1785, AID1786, AID1966, AID2133, AID2136, AID2285, AID2495]; format: functional
# [34] = molecular target: T7, Kappa-type opioid receptor; assay: SAR analysis of Antagonists of the Kappa Opioid Receptor (KOR) using an Image-Based Assay - Set 4. [Related pubchem assays (depositor defined):AID1777, AID1785]; format: functional
# [35] = molecular target: Delta-type opioid receptor (Homo sapiens, UniProt P41143); assay: SAR Analysis of Antagonists of the DOR Receptor using an Image-Based Assay - Set 3. [Related pubchem assays (depositor defined):AID1777, AID1785]; format: functional;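 also: U2OS cells expressing DOR1 and beta-arrestin GFP stimulated with 100 nM SNC80; imaging of GFP-tagged beta-arrestin moving into spots after receptor activation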
# [36] = molecular target: T7, Kappa-type opioid receptor; assay: SAR analysis of small molecule antagonists of the kappa opioid receptor via a luminescent beta-arrestin assay - Set 6. [Related pubchem assays (depositor defined):AID1777, AID1778, AID1785, AID1786, AID1966, AID2133, AID2136, AID2285]; format: functional
# T7 sequence (P41145 whole entry): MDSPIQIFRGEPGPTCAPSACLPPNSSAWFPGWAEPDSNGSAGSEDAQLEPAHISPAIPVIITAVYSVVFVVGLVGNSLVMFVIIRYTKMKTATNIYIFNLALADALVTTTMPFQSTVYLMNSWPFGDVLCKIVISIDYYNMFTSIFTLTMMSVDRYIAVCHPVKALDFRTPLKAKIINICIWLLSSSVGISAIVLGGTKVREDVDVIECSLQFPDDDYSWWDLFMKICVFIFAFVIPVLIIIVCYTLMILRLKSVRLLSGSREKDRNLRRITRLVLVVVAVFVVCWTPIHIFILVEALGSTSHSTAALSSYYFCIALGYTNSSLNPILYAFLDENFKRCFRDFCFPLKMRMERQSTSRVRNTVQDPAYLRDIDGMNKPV
# T2 sequence (P51452 whole entry): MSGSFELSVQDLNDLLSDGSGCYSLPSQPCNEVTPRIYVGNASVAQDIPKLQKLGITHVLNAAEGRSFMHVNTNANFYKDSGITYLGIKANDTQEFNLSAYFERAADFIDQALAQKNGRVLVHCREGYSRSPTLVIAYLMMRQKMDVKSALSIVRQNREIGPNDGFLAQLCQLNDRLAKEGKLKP
# T5 sequence (Q9Y2T6 whole entry): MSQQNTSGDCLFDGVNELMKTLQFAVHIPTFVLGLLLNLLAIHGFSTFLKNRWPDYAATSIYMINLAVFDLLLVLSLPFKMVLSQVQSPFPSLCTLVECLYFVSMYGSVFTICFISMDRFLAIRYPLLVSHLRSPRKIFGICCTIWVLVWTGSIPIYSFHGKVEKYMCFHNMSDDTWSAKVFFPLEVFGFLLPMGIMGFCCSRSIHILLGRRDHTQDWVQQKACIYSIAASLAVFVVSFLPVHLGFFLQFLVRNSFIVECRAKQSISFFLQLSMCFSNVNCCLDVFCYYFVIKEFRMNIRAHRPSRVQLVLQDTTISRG
# Chain of Alkaline phosphatase, tissue-nonspecific isozyme (P05186 whole entry): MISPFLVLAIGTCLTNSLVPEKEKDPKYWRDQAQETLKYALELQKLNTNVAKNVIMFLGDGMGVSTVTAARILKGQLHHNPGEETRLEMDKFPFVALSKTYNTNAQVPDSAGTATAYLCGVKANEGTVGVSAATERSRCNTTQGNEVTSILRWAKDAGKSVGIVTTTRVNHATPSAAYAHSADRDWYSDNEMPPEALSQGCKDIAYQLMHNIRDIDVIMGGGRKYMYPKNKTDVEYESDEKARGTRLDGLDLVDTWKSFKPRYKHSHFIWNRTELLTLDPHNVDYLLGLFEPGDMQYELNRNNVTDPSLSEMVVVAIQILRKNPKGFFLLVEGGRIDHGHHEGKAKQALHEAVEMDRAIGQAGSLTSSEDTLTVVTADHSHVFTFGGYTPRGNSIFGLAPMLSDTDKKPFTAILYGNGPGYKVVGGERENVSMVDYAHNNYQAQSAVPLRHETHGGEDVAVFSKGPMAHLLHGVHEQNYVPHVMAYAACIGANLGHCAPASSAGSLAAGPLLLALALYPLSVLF
# Chain of E3 ubiquitin-protein ligase Mdm2/Protein Mdm4 (Q00987 whole entry): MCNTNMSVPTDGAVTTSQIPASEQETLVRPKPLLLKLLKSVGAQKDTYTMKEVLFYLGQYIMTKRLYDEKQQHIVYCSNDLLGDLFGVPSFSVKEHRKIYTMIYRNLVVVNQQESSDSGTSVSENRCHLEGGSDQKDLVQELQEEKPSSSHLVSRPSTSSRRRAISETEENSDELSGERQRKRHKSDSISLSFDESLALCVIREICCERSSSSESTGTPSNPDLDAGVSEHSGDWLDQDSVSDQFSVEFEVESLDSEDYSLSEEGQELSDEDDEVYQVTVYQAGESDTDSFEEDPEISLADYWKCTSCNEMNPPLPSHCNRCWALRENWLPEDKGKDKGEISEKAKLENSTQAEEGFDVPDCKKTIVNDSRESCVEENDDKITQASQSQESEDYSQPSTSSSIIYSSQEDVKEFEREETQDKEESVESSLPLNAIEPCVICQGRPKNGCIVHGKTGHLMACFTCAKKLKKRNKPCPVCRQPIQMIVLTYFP
# Chain of E3 ubiquitin-protein ligase Mdm2/Protein Mdm4 (O15151 whole entry): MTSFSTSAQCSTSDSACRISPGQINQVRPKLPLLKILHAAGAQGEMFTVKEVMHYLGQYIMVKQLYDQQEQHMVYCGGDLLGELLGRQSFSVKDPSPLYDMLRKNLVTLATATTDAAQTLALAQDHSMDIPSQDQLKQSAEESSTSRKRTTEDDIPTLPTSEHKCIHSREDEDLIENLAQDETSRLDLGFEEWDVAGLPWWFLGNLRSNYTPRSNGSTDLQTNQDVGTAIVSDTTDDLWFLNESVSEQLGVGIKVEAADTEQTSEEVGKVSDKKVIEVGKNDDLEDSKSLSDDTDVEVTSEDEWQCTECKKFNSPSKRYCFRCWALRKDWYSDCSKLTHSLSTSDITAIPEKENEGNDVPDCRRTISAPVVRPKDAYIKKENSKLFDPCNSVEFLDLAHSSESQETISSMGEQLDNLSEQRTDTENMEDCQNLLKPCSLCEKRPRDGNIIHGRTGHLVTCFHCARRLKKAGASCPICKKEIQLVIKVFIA
# Chain of Alkaline phosphatase, placental type (P05187 whole entry): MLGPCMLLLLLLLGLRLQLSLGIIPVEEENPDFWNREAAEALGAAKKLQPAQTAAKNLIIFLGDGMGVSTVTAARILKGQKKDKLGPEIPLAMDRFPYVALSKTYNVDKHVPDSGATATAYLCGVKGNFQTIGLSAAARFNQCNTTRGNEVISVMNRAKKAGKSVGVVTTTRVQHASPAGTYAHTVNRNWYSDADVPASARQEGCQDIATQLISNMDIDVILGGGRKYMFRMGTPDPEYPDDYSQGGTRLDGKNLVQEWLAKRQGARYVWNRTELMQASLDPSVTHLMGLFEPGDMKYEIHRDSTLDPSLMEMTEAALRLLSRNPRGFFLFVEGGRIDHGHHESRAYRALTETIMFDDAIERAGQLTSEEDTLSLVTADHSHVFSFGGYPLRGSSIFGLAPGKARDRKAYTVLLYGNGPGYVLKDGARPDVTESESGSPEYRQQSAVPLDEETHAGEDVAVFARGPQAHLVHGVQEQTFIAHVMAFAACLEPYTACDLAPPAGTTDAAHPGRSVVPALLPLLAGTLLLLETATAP
# Chain of Cytochrome P450 2C19 (P33261 whole entry): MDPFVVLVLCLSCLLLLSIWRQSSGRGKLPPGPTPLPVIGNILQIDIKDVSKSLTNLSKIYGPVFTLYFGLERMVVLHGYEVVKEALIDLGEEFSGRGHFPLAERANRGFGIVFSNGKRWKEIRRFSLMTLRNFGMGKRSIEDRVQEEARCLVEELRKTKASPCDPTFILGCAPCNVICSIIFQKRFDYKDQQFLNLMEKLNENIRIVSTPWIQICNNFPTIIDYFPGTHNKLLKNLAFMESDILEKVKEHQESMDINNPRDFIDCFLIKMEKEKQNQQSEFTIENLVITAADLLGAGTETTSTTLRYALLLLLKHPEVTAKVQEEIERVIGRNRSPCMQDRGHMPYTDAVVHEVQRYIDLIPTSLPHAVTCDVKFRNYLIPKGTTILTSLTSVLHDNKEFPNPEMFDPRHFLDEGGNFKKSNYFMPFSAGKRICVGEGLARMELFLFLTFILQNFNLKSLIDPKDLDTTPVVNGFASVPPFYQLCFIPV
# Chain of G-protein coupled receptor 35 (Q9HC97 whole entry): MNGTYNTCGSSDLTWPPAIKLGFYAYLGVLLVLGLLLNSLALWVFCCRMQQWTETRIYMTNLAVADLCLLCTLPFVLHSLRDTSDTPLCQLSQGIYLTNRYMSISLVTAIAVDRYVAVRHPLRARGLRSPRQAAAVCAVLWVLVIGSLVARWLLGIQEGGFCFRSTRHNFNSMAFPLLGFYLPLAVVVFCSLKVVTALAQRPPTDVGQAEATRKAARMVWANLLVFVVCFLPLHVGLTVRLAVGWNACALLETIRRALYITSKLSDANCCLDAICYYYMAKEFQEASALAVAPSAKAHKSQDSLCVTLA
# Chain of Cytochrome P450 3A4 (P08684 whole entry): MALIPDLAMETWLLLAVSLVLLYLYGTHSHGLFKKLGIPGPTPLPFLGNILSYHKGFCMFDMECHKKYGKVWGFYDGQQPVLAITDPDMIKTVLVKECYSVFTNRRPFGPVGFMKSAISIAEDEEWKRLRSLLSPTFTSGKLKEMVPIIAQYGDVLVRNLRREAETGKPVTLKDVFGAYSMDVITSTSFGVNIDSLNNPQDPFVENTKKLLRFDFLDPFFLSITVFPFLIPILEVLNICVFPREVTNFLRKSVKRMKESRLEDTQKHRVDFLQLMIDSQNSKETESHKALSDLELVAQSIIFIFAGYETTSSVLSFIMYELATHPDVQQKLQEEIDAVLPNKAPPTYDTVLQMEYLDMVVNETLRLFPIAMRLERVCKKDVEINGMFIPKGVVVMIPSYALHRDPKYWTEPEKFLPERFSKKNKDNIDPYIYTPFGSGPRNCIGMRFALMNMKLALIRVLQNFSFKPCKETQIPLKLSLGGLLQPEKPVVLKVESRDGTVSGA
# Chain of Delta-type opioid receptor (P41143 whole entry): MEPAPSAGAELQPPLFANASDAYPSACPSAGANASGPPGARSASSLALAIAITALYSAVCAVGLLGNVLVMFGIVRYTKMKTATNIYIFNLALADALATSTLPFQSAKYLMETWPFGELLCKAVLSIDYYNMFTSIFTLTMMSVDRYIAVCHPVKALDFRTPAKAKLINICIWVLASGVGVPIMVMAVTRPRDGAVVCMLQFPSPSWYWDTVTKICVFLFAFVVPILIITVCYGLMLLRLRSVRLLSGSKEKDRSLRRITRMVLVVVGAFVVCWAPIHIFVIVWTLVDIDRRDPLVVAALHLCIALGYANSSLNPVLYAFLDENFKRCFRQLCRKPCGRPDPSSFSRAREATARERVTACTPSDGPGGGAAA
# Chain of Eukaryotic translation initiation factor 4E (P63073 whole entry): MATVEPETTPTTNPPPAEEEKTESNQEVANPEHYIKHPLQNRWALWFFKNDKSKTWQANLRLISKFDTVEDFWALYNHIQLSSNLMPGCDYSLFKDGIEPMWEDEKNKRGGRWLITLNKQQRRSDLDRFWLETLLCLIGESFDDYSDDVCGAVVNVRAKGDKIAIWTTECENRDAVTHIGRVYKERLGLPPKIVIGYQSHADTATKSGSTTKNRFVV
smiles,measurement,setting,value
CCOC(=O)c1ccc(NC2Nc3cc(C)nn3S2)cc1 (stereo unspecified),IC50,[1],> 50 µM (inactive)
same,IC50,[2],> 100 µM (inactive)
Cc1ccc(-c2nc3ccccc3s2)cc1NC(=O)c1cc(-n2cnnc2)ccc1Cl,AC50,[3],0.891 µM (inconclusive)
same,IC50,[4],2.21 µM (active)
same,IC50,[5],4.69 µM (active)
same,IC50,[6],3.69 µM (active)
same,AC50,[7],0.794 µM (inconclusive)
same,AC50,[8],2.51 µM (inconclusive)
same,AC50,[9],2.24 µM (inconclusive)
O=C(Nc1nc2ccccc2n1CCOc1ccc(Cl)cc1)c1ccco1,CC50,[10],9.25 µM (active)
same,IC50,[11],9.2 µM (active)
same,CC50,[12],> 20 µM (active)
same,CC50,[13],14 µM (active)
same,CC50,[14],34.4 µM (active)
same,EC50,[15],8.97 µM (active)
same,EC50,[16],2.02 µM (active)
O=C(CSc1nc2ccccc2s1)N1c2ccccc2Sc2ccccc21,EC50,[17],12.7 µM (inactive)
Cc1cc(-c2ccc(C)c(S(=O)(=O)N3CCN(C(=O)c4ccco4)CC3)c2)on1,EC50,[18],6.68 µM (active)
CC(=O)Nc1c(-c2ccccc2)nc2ncccn12,IC50,[19],> 64 µM (inactive)
CCOc1cc(N2CCOCC2)c(OCC)cc1NC(=O)COc1cccc2cccnc12,AC50,[20],3.83 µM (active)
same,AC50,[21],2.41 µM (active)
same,IC50,[22],4.99 µM (active)
same,EC50,[23],> 38 µM (not active)
same,AC50,[24],5.04 µM (active)
same,EC50,[25],> 150 µM (inactive)
same,AC50,[26],8.92 µM (active)
COC(=O)c1cnn(-c2ccccc2)c1/C=N/NC(=S)Nc1ccc(Cl)cc1,IC50,[27],> 32 µM (inactive)
same,IC50,[28],0.319 µM (active)
same,CC50,[29],> 40 µM (active)
COc1ccc(C(=O)CSc2nc3cc(C)c(C)cc3[nH]2)cc1OC,IC50,[30],> 100 µM (inactive)
same,IC50,[31],> 100 µM (inactive)
O=C(Cn1c(=O)c2cccn2c2cccnc21)NCCCN1CCN(c2ccc(Cl)cc2)CC1,IC50,[32],> 32 µM (inactive)
same,IC50,[33],3.44 µM (active)
same,IC50,[34],0.096 µM (active)
same,IC50,[35],> 32 µM (inactive)
same,IC50,[36],6.93 µM (active)
